pEC50, pKi: −log10 of the molar value.
Assays:
[1] = biological target: Protein arginine N-methyltransferase 5 (Homo sapiens, UniProt O14744); assay: Selectivity interaction (Methyltransferase panel (Scintillation proximity assay (SPA))) EUB0000212b PRMT5
[2] = biological target: T1, Histone-lysine N-methyltransferase SETD7 (Homo sapiens, UniProt Q8WTS6); assay: Selectivity interaction (Methyltransferase panel (Scintillation proximity assay (SPA))) EUB0000212b SETD7
T1 sequence (Q8WTS6 whole entry): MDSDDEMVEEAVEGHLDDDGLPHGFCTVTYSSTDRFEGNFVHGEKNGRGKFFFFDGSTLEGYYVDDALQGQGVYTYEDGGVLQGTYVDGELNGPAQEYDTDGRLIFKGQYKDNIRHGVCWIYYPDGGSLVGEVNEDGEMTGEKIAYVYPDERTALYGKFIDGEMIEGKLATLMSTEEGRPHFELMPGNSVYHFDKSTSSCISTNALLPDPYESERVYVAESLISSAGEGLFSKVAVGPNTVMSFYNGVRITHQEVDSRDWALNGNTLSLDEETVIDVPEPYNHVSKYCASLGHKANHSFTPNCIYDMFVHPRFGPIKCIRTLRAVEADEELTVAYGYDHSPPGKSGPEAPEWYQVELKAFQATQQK

[3] = biological target: DNA (cytosine-5)-methyltransferase 1 (Homo sapiens, UniProt P26358); assay: Selectivity interaction (Methyltransferase panel (Scintillation proximity assay (SPA))) EUB0000212b DNMT1
[4] = biological target: Histone-lysine N-methyltransferase 2A (Homo sapiens, UniProt Q03164); assay: Selectivity interaction (Methyltransferase panel (Scintillation proximity assay (SPA))) EUB0000212b MLL
[5] = biological target: Histone-lysine N-methyltransferase, H3 lysine-79 specific (Homo sapiens, UniProt Q8TEK3); assay: Selectivity interaction (Methyltransferase panel (Scintillation proximity assay (SPA))) EUB0000212b DOT1L
Sequence of Histone-lysine N-methyltransferase, H3 lysine-79 specific (Q8TEK3 whole entry): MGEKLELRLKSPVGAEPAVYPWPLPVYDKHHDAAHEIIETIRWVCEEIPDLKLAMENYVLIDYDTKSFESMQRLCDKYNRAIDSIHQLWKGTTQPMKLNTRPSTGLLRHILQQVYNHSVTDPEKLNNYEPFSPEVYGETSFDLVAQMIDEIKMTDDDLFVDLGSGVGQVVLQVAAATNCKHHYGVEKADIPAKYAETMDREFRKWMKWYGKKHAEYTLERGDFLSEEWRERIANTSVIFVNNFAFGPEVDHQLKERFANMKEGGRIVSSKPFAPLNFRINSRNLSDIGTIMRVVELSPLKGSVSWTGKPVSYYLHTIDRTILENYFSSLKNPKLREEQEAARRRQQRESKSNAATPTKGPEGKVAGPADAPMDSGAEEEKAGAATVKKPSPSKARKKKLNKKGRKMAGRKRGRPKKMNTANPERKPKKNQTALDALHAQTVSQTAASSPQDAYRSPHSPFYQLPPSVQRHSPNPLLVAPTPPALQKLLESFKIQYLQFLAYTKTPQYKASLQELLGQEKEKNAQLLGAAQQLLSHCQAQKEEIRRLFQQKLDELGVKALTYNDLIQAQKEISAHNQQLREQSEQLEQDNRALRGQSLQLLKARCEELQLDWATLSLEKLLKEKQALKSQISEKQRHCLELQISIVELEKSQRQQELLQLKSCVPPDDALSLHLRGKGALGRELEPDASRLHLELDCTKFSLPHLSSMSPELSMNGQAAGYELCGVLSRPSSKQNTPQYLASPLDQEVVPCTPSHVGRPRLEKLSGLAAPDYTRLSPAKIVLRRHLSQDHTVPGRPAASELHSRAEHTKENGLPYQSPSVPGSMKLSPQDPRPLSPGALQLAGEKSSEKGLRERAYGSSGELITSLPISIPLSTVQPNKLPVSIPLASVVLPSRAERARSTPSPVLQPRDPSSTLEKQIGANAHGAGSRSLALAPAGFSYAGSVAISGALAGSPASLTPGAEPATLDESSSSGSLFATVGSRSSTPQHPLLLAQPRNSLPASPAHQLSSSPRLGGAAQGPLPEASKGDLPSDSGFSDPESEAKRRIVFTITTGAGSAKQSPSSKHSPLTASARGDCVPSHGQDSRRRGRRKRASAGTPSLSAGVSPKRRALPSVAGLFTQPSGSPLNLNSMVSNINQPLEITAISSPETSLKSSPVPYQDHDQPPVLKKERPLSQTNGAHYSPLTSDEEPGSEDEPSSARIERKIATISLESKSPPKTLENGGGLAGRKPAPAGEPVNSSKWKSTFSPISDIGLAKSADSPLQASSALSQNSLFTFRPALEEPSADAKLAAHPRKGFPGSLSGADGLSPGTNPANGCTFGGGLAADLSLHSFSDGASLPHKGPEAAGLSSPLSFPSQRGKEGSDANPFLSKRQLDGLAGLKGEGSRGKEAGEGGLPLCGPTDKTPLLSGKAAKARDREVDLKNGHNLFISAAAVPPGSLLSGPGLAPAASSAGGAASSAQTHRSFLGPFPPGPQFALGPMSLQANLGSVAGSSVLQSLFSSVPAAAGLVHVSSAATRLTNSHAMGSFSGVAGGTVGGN

[6] = biological target: T2, Histone-lysine N-methyltransferase EZH1 (Homo sapiens, UniProt Q92800); assay: Selectivity interaction (Methyltransferase panel (Scintillation proximity assay (SPA))) EUB0000212b EZH1
T2 sequence (Q92800 whole entry): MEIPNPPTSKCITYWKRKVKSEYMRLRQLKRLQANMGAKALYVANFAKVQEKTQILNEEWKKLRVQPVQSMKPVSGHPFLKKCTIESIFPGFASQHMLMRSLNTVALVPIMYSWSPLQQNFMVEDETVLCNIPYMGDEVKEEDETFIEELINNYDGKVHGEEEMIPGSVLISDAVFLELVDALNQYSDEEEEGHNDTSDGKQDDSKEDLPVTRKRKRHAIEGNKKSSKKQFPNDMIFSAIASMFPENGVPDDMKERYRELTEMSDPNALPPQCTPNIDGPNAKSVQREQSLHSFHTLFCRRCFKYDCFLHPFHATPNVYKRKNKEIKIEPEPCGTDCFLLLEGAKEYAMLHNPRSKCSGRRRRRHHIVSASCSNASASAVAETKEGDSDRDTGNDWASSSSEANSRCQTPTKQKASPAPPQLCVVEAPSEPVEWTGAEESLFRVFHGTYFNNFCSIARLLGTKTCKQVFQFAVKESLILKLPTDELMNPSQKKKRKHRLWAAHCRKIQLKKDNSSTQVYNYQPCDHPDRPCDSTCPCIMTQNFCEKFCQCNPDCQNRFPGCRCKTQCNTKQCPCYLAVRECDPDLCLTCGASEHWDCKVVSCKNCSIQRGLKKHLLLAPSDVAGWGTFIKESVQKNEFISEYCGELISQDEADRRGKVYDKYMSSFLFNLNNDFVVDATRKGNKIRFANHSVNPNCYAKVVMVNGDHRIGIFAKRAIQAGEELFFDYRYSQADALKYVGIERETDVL

[7] = biological target: Histone-lysine N-methyltransferase EZH2 (Homo sapiens, UniProt Q15910); assay: Selectivity interaction (Methyltransferase panel (Scintillation proximity assay (SPA))) EUB0000212b EZH2
Sequence of Histone-lysine N-methyltransferase EZH2 (Q15910 whole entry): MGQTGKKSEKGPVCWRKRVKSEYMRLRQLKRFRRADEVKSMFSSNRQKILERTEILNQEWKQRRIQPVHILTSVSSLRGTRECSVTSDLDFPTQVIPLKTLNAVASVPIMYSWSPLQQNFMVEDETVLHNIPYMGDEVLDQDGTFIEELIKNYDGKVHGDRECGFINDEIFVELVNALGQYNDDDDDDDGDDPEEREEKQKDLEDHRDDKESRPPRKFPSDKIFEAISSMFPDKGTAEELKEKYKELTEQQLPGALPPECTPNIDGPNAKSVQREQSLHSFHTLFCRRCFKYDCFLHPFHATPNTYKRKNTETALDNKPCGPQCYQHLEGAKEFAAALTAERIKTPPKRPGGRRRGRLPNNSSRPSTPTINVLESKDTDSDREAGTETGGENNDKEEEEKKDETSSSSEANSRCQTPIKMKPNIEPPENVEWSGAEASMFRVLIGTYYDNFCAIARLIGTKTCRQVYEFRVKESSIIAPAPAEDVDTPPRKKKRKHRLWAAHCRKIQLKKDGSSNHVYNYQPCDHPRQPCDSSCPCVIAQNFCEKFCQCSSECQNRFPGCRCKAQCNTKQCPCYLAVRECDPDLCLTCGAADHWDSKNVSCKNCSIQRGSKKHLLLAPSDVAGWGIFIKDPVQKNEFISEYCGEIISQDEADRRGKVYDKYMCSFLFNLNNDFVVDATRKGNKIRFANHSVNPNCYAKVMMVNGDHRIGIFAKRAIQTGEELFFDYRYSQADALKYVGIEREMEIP

[8] = biological target: Histone-lysine N-methyltransferase NSD2 (Homo sapiens, UniProt O96028); assay: Selectivity interaction (Methyltransferase panel (Scintillation proximity assay (SPA))) EUB0000212b NSD2
[9] = biological target: Histone-lysine N-methyltransferase NSD3 (Homo sapiens, UniProt Q9BZ95); assay: Selectivity interaction (Methyltransferase panel (Scintillation proximity assay (SPA))) EUB0000212b NSD3
[10] = biological target: Protein arginine N-methyltransferase 1 (Homo sapiens, UniProt Q99873); assay: Selectivity interaction (Methyltransferase panel (Scintillation proximity assay (SPA))) EUB0000212b PRMT1
Sequence of Protein arginine N-methyltransferase 1 (Q99873 whole entry): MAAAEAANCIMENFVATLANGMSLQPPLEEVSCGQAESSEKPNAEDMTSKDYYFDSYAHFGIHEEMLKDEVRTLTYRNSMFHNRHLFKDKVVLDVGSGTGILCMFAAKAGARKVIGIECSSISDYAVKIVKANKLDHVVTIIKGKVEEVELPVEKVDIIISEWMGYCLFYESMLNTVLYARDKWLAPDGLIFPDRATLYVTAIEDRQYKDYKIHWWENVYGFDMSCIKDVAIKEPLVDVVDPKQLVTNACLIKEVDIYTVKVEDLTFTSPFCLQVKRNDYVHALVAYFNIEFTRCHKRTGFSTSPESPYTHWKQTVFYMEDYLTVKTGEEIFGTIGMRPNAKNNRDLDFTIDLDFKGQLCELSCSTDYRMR

[11] = biological target: Protein arginine N-methyltransferase 3 (Homo sapiens, UniProt O60678); assay: Selectivity interaction (Methyltransferase panel (Scintillation proximity assay (SPA))) EUB0000212b PRMT3
[12] = biological target: Protein arginine N-methyltransferase 6 (Homo sapiens, UniProt Q96LA8); assay: Selectivity interaction (Methyltransferase panel (Scintillation proximity assay (SPA))) EUB0000212b PRMT6
Sequence of Protein arginine N-methyltransferase 6 (Q96LA8 whole entry): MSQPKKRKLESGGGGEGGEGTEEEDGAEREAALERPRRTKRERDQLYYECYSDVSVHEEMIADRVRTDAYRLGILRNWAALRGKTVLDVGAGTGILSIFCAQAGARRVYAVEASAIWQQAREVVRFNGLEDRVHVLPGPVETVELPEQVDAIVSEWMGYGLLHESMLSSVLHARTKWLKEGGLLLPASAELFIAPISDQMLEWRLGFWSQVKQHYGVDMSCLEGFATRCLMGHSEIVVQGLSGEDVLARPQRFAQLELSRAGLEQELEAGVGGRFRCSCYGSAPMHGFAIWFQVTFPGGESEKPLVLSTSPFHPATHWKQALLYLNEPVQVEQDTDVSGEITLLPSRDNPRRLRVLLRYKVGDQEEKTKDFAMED

[13] = biological target: Protein arginine N-methyltransferase 8 (Homo sapiens, UniProt Q9NR22); assay: Selectivity interaction (Methyltransferase panel (Scintillation proximity assay (SPA))) EUB0000212b PRMT8
Sequence of Protein arginine N-methyltransferase 8 (Q9NR22 whole entry): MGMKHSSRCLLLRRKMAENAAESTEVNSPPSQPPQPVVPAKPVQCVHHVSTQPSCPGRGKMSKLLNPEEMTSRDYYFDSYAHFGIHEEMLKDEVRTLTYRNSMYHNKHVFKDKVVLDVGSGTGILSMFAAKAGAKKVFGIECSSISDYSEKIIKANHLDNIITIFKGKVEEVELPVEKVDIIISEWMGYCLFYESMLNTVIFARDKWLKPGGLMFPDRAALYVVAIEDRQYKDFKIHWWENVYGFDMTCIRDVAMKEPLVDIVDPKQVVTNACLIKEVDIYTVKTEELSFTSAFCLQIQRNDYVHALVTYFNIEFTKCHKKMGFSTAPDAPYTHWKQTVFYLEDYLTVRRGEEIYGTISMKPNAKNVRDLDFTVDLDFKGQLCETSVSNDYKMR

[14] = biological target: T3, N-lysine methyltransferase KMT5A (Homo sapiens, UniProt Q9NQR1); assay: Selectivity interaction (Methyltransferase panel (Scintillation proximity assay (SPA))) EUB0000212b SETD8
T3 sequence (Q9NQR1 whole entry): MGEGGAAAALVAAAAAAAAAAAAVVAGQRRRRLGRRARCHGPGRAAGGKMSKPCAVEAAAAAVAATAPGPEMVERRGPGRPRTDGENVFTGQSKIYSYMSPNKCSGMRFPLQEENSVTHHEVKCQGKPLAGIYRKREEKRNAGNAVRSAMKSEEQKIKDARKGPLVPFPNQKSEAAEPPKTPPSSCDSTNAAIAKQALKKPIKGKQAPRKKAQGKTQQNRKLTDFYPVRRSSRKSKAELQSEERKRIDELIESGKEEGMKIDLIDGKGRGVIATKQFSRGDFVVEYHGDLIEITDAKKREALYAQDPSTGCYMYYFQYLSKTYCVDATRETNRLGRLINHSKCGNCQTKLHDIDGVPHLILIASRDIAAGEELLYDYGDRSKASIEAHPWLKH

[15] = biological target: Histone-lysine N-methyltransferase SETDB1 (Homo sapiens, UniProt Q15047); assay: Selectivity interaction (Methyltransferase panel (Scintillation proximity assay (SPA))) EUB0000212b SETDB1
[16] = biological target: Histone-lysine N-methyltransferase SMYD3 (Homo sapiens, UniProt Q9H7B4); assay: Selectivity interaction (Methyltransferase panel (Scintillation proximity assay (SPA))) EUB0000212b SMYD3
[17] = biological target: Histone-lysine N-methyltransferase SUV39H2 (Homo sapiens, UniProt Q9H5I1); assay: Selectivity interaction (Methyltransferase panel (Scintillation proximity assay (SPA))) EUB0000212b SUV39H2
[18] = biological target: Histone-lysine N-methyltransferase KMT5B (Homo sapiens, UniProt Q4FZB7); assay: Selectivity interaction (Methyltransferase panel (Scintillation proximity assay (SPA))) EUB0000212b SUV420H1
Sequence of Histone-lysine N-methyltransferase KMT5B (Q4FZB7 whole entry): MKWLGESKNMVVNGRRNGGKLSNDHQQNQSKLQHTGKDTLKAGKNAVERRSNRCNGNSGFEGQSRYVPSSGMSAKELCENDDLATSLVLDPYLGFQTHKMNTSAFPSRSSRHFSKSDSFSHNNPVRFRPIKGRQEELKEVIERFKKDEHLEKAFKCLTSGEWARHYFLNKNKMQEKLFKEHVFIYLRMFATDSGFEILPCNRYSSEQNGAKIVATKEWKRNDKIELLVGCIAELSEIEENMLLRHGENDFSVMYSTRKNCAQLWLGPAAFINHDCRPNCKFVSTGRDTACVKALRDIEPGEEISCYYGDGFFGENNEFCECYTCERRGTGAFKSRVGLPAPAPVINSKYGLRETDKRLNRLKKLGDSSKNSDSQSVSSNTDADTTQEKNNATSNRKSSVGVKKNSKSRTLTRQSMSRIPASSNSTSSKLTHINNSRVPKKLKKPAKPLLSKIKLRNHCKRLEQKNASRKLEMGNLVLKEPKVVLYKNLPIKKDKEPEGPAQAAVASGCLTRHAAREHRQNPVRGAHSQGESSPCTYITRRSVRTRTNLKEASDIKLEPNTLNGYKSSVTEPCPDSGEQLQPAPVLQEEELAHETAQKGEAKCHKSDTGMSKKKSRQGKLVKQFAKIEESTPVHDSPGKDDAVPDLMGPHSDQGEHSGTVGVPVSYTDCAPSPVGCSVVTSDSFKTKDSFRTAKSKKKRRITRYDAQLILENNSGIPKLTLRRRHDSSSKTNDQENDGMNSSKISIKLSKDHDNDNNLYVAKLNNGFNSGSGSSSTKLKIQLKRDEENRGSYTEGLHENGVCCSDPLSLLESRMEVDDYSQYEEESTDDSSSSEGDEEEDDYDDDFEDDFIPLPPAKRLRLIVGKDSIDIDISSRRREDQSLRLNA

[19] = biological target: Histone-lysine N-methyltransferase KMT5C (Homo sapiens, UniProt Q86Y97); assay: Selectivity interaction (Methyltransferase panel (Scintillation proximity assay (SPA))) EUB0000212b SUV420H2
[20] = biological target: T4, Adenosine receptor A1 (Homo sapiens) (UniProt P30542); assay: (§1) Selectivity interaction (CEREP panel (GPCRS, ion channels, transporters)) EUB0000193b ADORA1; details: Inactive against protein arginine methyltransferases,, at 10 µM
T4 sequence (whole entry): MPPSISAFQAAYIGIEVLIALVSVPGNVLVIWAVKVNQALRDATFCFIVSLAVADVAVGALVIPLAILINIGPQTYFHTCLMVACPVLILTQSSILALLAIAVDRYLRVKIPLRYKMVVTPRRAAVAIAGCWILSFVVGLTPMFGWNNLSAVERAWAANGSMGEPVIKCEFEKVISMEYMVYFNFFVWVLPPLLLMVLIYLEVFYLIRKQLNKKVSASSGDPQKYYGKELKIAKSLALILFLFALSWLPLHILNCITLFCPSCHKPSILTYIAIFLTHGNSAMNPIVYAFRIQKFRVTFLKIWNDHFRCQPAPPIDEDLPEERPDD

[21] = biological target: Adenosine receptor A1 (Homo sapiens, UniProt P30542); assay: as §1
[22] = biological target: Adenosine receptor A2a (Homo sapiens) (UniProt P29274); assay: Selectivity interaction (CEREP panel (GPCRS, ion channels, transporters)) EUB0000193b ADORA2A; details: Inactive against protein arginine methyltransferases,, at 10 µM
[23] = biological target: T5, Adenosine receptor A3 (Homo sapiens) (UniProt P0DMS8); assay: Selectivity interaction (CEREP panel (GPCRS, ion channels, transporters)) EUB0000193b ADORA3; details: Inactive against protein arginine methyltransferases,, at 10 µM
T5 sequence (whole entry): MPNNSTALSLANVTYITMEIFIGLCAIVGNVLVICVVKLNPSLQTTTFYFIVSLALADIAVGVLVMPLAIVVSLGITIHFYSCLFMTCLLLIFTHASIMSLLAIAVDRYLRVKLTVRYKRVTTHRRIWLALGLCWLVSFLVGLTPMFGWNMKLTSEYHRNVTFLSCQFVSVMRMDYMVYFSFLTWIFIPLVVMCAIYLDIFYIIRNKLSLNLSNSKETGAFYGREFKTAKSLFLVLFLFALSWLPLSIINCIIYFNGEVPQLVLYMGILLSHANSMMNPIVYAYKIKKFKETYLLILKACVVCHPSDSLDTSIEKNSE

[24] = biological target: Delta-type opioid receptor (Homo sapiens) (UniProt P41143); assay: Selectivity interaction (CEREP panel (GPCRS, ion channels, transporters)) EUB0000193b OPRD1; details: Inactive against protein arginine methyltransferases,, at 10 µM
[25] = biological target: Kappa-type opioid receptor (Homo sapiens, UniProt P41145); assay: Selectivity interaction (CEREP panel (GPCRS, ion channels, transporters)) EUB0000193b OPRK1; details: Inactive against protein arginine methyltransferases,, at 10 µM
[26] = biological target: Substance-K receptor (Homo sapiens) (UniProt P21452); assay: Selectivity interaction (CEREP panel (GPCRS, ion channels, transporters)) EUB0000193b TACR2; details: Inactive against protein arginine methyltransferases,, at 10 µM
[27] = biological target: T6, Gamma-aminobutyric acid receptor subunit alpha-1 (Homo sapiens) (UniProt P14867); assay: (§2) Selectivity interaction (CEREP panel (GPCRS, ion channels, transporters)) EUB0000193b GABRA1; details: Inactive against protein arginine methyltransferases,, at 10 µM
T6 sequence (whole entry): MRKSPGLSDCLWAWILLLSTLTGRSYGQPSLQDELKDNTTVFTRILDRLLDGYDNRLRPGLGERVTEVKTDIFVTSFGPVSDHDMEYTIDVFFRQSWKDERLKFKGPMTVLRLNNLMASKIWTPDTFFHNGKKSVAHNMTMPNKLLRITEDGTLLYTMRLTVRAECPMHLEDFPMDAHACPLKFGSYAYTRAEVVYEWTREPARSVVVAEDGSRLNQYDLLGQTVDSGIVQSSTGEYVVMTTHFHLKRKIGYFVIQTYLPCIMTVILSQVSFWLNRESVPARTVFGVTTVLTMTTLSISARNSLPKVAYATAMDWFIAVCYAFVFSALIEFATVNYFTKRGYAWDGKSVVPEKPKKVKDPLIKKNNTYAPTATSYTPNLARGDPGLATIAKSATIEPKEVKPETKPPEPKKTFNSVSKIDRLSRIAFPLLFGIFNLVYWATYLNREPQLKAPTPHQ

[28] = biological target: T7, Gamma-aminobutyric acid receptor subunit alpha-1 (Homo sapiens, UniProt P14867); assay: as §2
T7 sequence (P14867 whole entry): T6 sequence (whole entry)

[29] = biological target: Histone-lysine N-methyltransferase NSD2 (Homo sapiens) (UniProt O96028); assay: Selectivity interaction (Epigenetic methyltransferases panel) EUB0000193b NSD2; details: Inactive against protein arginine methyltransferases,, at 10 µM

Sequence of Protein arginine N-methyltransferase 5 (O14744 whole entry): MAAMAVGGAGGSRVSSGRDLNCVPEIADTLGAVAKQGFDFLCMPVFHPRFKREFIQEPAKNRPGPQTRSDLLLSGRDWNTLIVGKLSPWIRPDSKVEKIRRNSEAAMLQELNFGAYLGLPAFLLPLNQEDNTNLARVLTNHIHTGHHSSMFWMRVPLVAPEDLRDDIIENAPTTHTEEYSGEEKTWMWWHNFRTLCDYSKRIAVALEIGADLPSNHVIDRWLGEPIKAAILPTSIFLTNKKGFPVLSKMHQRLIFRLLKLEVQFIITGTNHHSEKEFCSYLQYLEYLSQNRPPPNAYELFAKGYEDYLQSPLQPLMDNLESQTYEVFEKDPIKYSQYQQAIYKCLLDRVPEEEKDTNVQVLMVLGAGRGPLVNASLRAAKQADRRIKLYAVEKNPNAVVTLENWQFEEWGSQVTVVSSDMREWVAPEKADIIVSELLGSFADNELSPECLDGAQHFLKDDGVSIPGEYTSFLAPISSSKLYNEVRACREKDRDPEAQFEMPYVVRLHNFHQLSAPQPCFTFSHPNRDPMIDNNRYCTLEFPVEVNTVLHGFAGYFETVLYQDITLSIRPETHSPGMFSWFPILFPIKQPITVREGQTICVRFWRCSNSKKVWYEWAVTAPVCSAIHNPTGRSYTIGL

Compound: COc1cc2c(cc1OCCCN1CCCC1)N=C(N)C21CCC1
- pEC50 [1]: < 4.30
- pEC50 [2]: < 4.30
- pEC50 [3]: < 4.30
- pEC50 [4]: < 4.30
- pEC50 [5]: < 4.30
- pEC50 [6]: < 4.30
- pEC50 [7]: < 4.30
- pEC50 [8]: < 4.30
- pEC50 [9]: < 4.30
- pEC50 [10]: < 4.30
- pEC50 [11]: < 4.30
- pEC50 [12]: < 4.30
- pEC50 [13]: < 4.30
- pEC50 [14]: < 4.30
- pEC50 [15]: < 4.30
- pEC50 [16]: < 4.30
- pEC50 [17]: < 4.30
- pEC50 [18]: < 4.30
- pEC50 [19]: < 4.30

Compound: Clc1cc2c(NC3CCCC3)nnc(-c3ccncc3)c2cc1Cl
- % of inhibition [20]: 98%
- pKi [21]: 7.92
- % of inhibition [22]: 98%
- % of inhibition [23]: 74%
- % of inhibition [24]: 51%
- % of inhibition [25]: 62%
- % of inhibition [26]: 61%
- % of inhibition [27]: 90%
- pKi [28]: 5.74
- % of activity remaining [29]: 90%

Source: ChEMBL document CHEMBL5212743, “Selectivity Literature for EUbOPEN Chemogenomics Library wave 3” (2023)
